Source: paper PMC7570544, “Biological Activities and ADMET-Related Properties of Novel Set of Cinnamanilides” (Molecules, 2020)
≈ marks a conversion by molar mass, not a printed value.

What was measured:
[1] = Lipophilicity determination by RP-TLC; assay type: physicochemical; set-up: key to RM (MeOH:H2O): RM = log(1/RF - 1), from RP-18 TLC; conditions: for RM (MeOH:H2O): 72:28 MeOH:H2O; for RM (pH 7.4): 72:28 MeOH:NaOAc buffer (pH 7.4)
Experimental: RM values were determined from the RP-18 TLC measurements. […] The volatiles were carefully evaporated, and the plate was developed by MeOH (100%) or MeOH: H2O-HPLC (72:28 v/v) or MeOH: NaOAc buffer, pH 7.4 (72:28 v/v). After drying, the spots were visualized under UV (λ = 365 nm). RM data were obtained from equation: RM = log(1/RF-1). Each experiment was repeated three times.

[2] = tested on: Staphylococcus aureus ATCC 29213; experiment: In vitro antibacterial evaluation, broth microdilution MIC, reference strain; assay type: cell-based; conditions: Staphylococcus aureus, ATCC29213; S. aureus ATCC 29213
[3] = RP-HPLC, 72:28 MeOH:H2O
[4] = tested on: methicillin-resistant Staphylococcus aureus (MRSA) 63718; experiment: In vitro antibacterial evaluation, broth microdilution MIC, MRSA isolate 63718; assay type: cell-based; conditions: clinical isolate MRSA 63718
[5] = tested on: methicillin-resistant Staphylococcus aureus (MRSA) SA 630; experiment: In vitro antibacterial evaluation, broth microdilution MIC, MRSA isolate SA 630; assay type: cell-based; conditions: clinical isolate MRSA SA 630
[6] = tested on: Mycobacterium tuberculosis H37Ra/ATCC 25177; experiment: In vitro antimycobacterial evaluation; assay type: cell-based; conditions: M. tuberculosis H37Ra
Text: Isoniazid (Sigma) was used as the standard.

[7] = tested on: THP1-Blue™ NF-κB cell line; experiment: In vitro cell viability assay (WST-1); assay type: cell-based; conditions: Homo sapiens; THP1-Blue NF-κB cells, 24 h incubation, WST-1, mean ± SEM, n = 6; read-out: Tox IC50 ± SEM
Experimental: The cytotoxic effect of the tested compounds was specified on THP1-Blue™ NF-κB cell line (Invivogen; San Diego, CA, USA), as described previously. […] The final concentration of DMSO was 0.1% (v/v) in each well. The viability analysis was performed after 24 h incubation with the tested substances using the WST-1 Cell Proliferation Reagent kit (Roche Diagnostics, Basel, Switzerland) according to the manufacturer’s manual. […] The IC50 values were calculated by four-parameter logistic (4PL) analysis from obtained viability curves by GraphPad Prism 8.0.1 (San Diego, CA, USA) software.

[8] = tested on: NF-κB in THP1-Blue™ NF-κB cells; experiment: Determination of NF-κB activity after LPS stimulation (Quanti-Blue); assay type: cell-based, human; conditions: 1 µM compound, 1 h pretreatment, LPS 1 µg/mL, 24 h, vs DMSO group
Experimental: To evaluate the anti-inflammatory potential of novel compounds, their ability to attenuate the lipopolysaccharide (LPS)-activated pro-inflammatory transcription nuclear factor (NF)-κB was measured as was described previously. Briefly, THP1-Blue™ NF-κB cells were pretreated by tested compounds dissolved in DMSO in the non-toxic concentration 1 µM for 1 h. After LPS (1 µg/mL) stimulation, the NF-κB activity was evaluated by Quanti-Blue medium (Invivogen) according to the manufacturer’s instructions. The results from 3 independent experiments performed in triplicate (n = 9) were analyzed by GraphPad Prism 8.0.1 software. The outlaying values were excluded by ROUT algorithms (Q = 5%).
Figure 1 Effect of tested compounds on activity of transcription factor NF-κB. […] Then, lipopolysaccharide (LPS) 1 µg/mL was added to trigger the NF-κB activation. The activity of NF-κB was measured 24 h after LPS stimulation using QuantiBlue™ assay. The graph represents mean ± SEM (n = 9). […] Groups were compared with the help of the one-way ANOVA test followed by Fisher’s LSD multiple comparison test. * indicates statistical significance (p < 0.05) to DMSO group; ** indicates statistical significance (p < 0.01) to DMSO group; *** indicates statistical significance (p < 0.001) to DMSO group; **** indicates statistical significance (p < 0.0001) to DMSO group. CA—cinnamic acid.

Compound	RM (MeOH:H2O) [1]	RM (pH 7.4) [1]	RM (100% MeOH) [1]	MIC [2]	Logk [3]	MIC [4]	MIC [5]	MIC [6]	chromatographic logD (physchem; pH 6.5)	chromatographic logD (physchem; pH 7.4)	IC50 [7]	increase of NF-κB activity [8]	decrease of NF-κB activity [8]
O=C(/C=C/c1ccccc1)Nc1ccc(Br)cc1C(F)(F)F [Compound 16, (2E)-N-[4-Bromo-2-(trifluoromethyl)phenyl]-3-phenylprop-2-enamide]	0.5730	0.4273	−0.5624	> 696 µM	0.4683	> 696 µM	> 696 µM	> 348 µM	0.51	0.532	> 20 µM	–	–
O=C(/C=C/c1ccccc1)Nc1ccc(Br)c(Cl)c1 [Compound 11, (2E)-N-(4-Bromo-3-chlorophenyl)-3-phenylprop-2-enamide]	0.8388	0.8181	−0.3376	> 766 µM	0.6611	192 µM (≈ 64.6 µg/mL)	192 µM (≈ 64.6 µg/mL)	> 383 µM	0.691	0.713	6.5 ± 1 µM	–	–
O=C(/C=C/c1ccccc1)Nc1cc(Cl)c(Cl)cc1Cl [Compound 5, (2E)-3-Phenyl-N-(2,4,5-trichlorophenyl)prop-2-enamide]	0.9695	0.9832	−0.2497	> 790 µM	0.8373	> 790 µM	> 790 µM	–	0.865	0.888	> 20 µM	10–15%	–
O=C(/C=C/c1ccccc1)Nc1ccc([N+](=O)[O-])cc1C(F)(F)F [Compound 17, (2E)-N-[4-Nitro-2-(trifluoromethyl)phenyl]-3-phenylprop-2-enamide]	0.4998	0.4311	−0.5633	> 762 µM	0.3794	> 762 µM	> 762 µM	> 381 µM	0.399	0.443	> 20 µM	–	–
O=C(/C=C/c1ccccc1)Nc1cc(Cl)ccc1F [Compound 8, (2E)-N-(5-Chloro-2-fluorophenyl)-3-phenylprop-2-enamide]	0.5411	0.5495	−0.4711	931 µM (≈ 257 µg/mL)	0.3692	> 931 µM	> 931 µM	> 465 µM	0.415	0.433	> 20 µM	–	–
O=C(/C=C/c1ccccc1)Nc1ccc(F)cc1C(F)(F)F [Compound 14, (2E)-N-[4-Fluoro-2-(trifluoromethyl)phenyl]-3-phenylprop-2-enamide]	0.3011	0.1330	−0.6797	> 828 µM	0.1607	> 828 µM	> 828 µM	> 414 µM	0.222	0.243	> 20 µM	–	approximately 9%
O=C(/C=C/c1ccccc1)Nc1ccc(Br)c(F)c1 [Compound 9, (2E)-N-(4-Bromo-3-fluorophenyl)-3-phenylprop-2-enamide]	0.6797	0.6895	−0.4081	> 805 µM	0.5025	> 805 µM	805 µM (≈ 258 µg/mL)	> 403 µM	0.541	0.56	> 20 µM	–	–
CC1(C)S[C@@H]2[C@H](NC(=O)[C@H](N)c3ccccc3)C(=O)N2[C@H]1C(=O)O [AMP, ampicillin, reference compound]	–	–	–	–	–	45.8 µM (≈ 16 µg/mL)	45.8 µM (≈ 16 µg/mL)	–	–	–	–	–	–
NNC(=O)c1ccncc1 [INH, isoniazid, reference compound]	–	–	–	–	–	–	–	36.6 µM (≈ 5.02 µg/mL)	–	–	–	–	–
O=C(/C=C/c1ccccc1)Nc1ccc(Br)cc1Br [Compound 7, (2E)-N-(2,4-Dibromophenyl)-3-phenylprop-2-enamide]	0.7331	0.7295	−0.3098	> 677 µM	0.6152	> 677 µM	> 677 µM	> 339 µM	0.652	0.67	> 20 µM	–	–
O=C(/C=C/c1ccccc1)Nc1ccc(Cl)cc1C(F)(F)F [Compound 15, (2E)-N-[4-Chloro-2-(trifluoromethyl)phenyl]-3-phenylprop-2-enamide]	0.5305	0.3219	−0.6102	> 788 µM	0.4113	> 788 µM	> 788 µM	> 394 µM	0.454	0.474	> 20 µM	–	–
O=C(/C=C/c1ccccc1)Nc1c(Br)cc(C(F)(F)F)cc1Br [Compound 19, (2E)-N-[2,6-Dibromo-4-(trifluoromethyl)phenyl]-3-phenylprop-2-enamide]	0.5301	0.3733	−0.5206	> 574 µM	0.4321	> 574 µM	> 574 µM	> 287 µM	0.473	0.494	> 20 µM	–	–
O=C(/C=C/c1ccccc1)Nc1ccc(Cl)cc1Br [Compound 12, (2E)-N-(2-Bromo-4-chlorophenyl)-3-phenylprop-2-enamide]	0.6553	0.6484	−0.4072	> 766 µM	0.5476	> 766 µM	> 766 µM	> 383 µM	0.586	0.606	> 20 µM	–	–
O=C(/C=C/c1ccccc1)Nc1cc(F)c(F)c(F)c1 [Compound 3, (2E)-3-Phenyl-N-(3,4,5-trifluorophenyl)prop-2-enamide]	0.6074	0.5495	−0.4206	462 µM (≈ 128 µg/mL)	0.4893	> 924 µM	> 924 µM	> 462 µM	0.527	0.549	> 20 µM	–	–
O=C(/C=C/c1ccccc1)Nc1ccc(Cl)cc1Cl [Compound 4, (2E)-N-(2,4-Dichlorophenyl)-3-phenylprop-2-enamide]	0.6546	0.5495	−0.3933	> 880 µM	0.5278	> 880 µM	> 880 µM	–	0.569	0.589	> 20 µM	10–15%	–
O=C(/C=C/c1ccccc1)Nc1cc(Cl)c(Cl)c(Cl)c1 [Compound 6, (2E)-3-Phenyl-N-(3,4,5-trichlorophenyl)prop-2-enamide]	1.0852	1.1306	−0.1870	> 790 µM	0.9671	> 790 µM	> 790 µM	> 395 µM	0.99	1.01	> 20 µM	–	–
